Data on seven compounds can be found in patent publication US20230398130A1, “METHODS AND COMPOSITIONS FOR DIFFERENTIATING STEM CELLS” (Massachusetts Institute of Technology, priority 2020, published 2023).

Counter-ions that a name gives are not always drawn.

Test [1] has as its system ISC-enriched organoids. As to the kind of experiment: Primary screen, 384-well 2.5-D organoid differentiation (ENR+CD, 6 days): basal lysozyme secretion (LYZ.NS). The format is cell-based, murine. Conditions: primary screen; for Dose.FC.LYZ.NS: FC vs plate median. An excerpt: (§1) High-throughput screening.
Test [2] has as its system ISC-enriched organoids. As to the kind of experiment: Primary screen, 384-well 2.5-D organoid differentiation (ENR+CD, 6 days, Target Selective Inhibitor Library, vs whole-plate median): ATP (CellTiter-Glo 3D, CTG). Conditions: for Dose.FC.CTG: FC vs plate median; for SSMD.CTG: strictly standardized mean difference. For orientation: ATP-based viability assays read luminescence as a measure of living cells.

Test [3] relates to ISC-enriched organoids. As to the kind of experiment: Primary screen, 384-well 2.5-D organoid differentiation (ENR+CD, 6 days): carbachol-induced lysozyme secretion (LYZ.S). The format is cell-based, murine. The following applies: primary screen; for Dose.FC.LYZ.S: ENR+CD 6 days, FC vs plate median.
Source text: as §1

[4] abbreviates: primary screen, dose 0.08 uM, standard z score of FC.
[5] abbreviates: primary screen, dose 0.40 uM, standard z score of FC.
[6] abbreviates: primary screen, dose 2.00 uM, standard z score of FC.
The mark [7] stands for this setting: primary screen, dose 10.00 uM, standard z score of FC.
The mark [8] stands for this setting: primary screen, dose 0.08 uM, ENR+CD 6 days.
The mark [9] stands for this setting: primary screen, dose 0.40 uM, ENR+CD 6 days.
Setting [10] is: primary screen, dose 2.00 uM, ENR+CD 6 days.
Where [11] appears, read: primary screen, dose 10.00 uM, ENR+CD 6 days.
The mark [12] stands for this setting: strictly standardized mean difference of replicates, four lines per treatment = four doses (dose not given), column head inferred.
Where [13] appears, read: Dose 10.00 uM, standard z score.
Where [14] appears, read: strictly standardized mean difference, 1st of the 4 dose lines of the treatment (dose not given).
Where [15] appears, read: strictly standardized mean difference, 2nd of the 4 dose lines of the treatment (dose not given).
[16] abbreviates: strictly standardized mean difference, 3rd of the 4 dose lines of the treatment (dose not given).
Where [17] appears, read: strictly standardized mean difference, 4th of the 4 dose lines of the treatment (dose not given).
[18] abbreviates: Dose 0.08 uM, primary screen, standard z score.
Setting [19] is: Dose 0.40 uM, primary screen, standard z score.
Where [20] appears, read: Dose 2.00 uM, primary screen, standard z score.
The mark [21] stands for this setting: Dose 10.00 uM, primary screen, standard z score.
[22] abbreviates: primary screen, 1st of the 4 dose lines of the treatment (dose not given).
Setting [23] is: primary screen, 2nd of the 4 dose lines of the treatment (dose not given).
The mark [24] stands for this setting: primary screen, 3rd of the 4 dose lines of the treatment (dose not given).
Where [25] appears, read: primary screen, 4th of the 4 dose lines of the treatment (dose not given).

`CCN(CC)C(=O)c1ccc(C2=CC3(CCNCC3)Oc3cccc(O)c32)cc1` [ADL5859 HCl]: the Z.LYZ.NS in the test with ISC-enriched organoids [1] (dose 0.40 uM, standard z score of FC) came to 0.163. In addition, the Z.CTG in the test on ISC-enriched organoids [2] (setting [4]) is given as 0.645; in the test on ISC-enriched organoids [2] (setting [5]), 0.389; in the test on ISC-enriched organoids [2] (setting [6]), 0.695; in the test on ISC-enriched organoids [2] (setting [7]) it was 0.465.

Consider `COc1cc(CCc2cc(NC(=O)c3ccc(N4CC(C)NC(C)C4)cc3)n[nH]2)cc(OC)c1` (centres unmarked) [AZD4547], for which the Dose.FC.LYZ.S is recorded as 0.157 log 2 fold change with ISC-enriched organoids [3] (dose 0.08 uM), 0.083 log 2 fold change in the test with ISC-enriched organoids [3] (dose 0.40 uM), 0.074 log 2 fold change with ISC-enriched organoids [3] (dose 2.00 uM) and −0.049 log 2 fold change in the test with ISC-enriched organoids [3] (dose 10.00 uM). For the same compound, the Dose.FC.CTG in the test with ISC-enriched organoids [2] (setting [8]) is on record as 0.160 log 2 fold change; in the test on ISC-enriched organoids [2] (setting [9]), 0.101 log 2 fold change; in the test with ISC-enriched organoids [2] (setting [10]), −0.010 log 2 fold change; in the test on ISC-enriched organoids [2] (setting [11]), −0.062 log 2 fold change. The Z.CTG was 0.382 with ISC-enriched organoids [2] (setting [4]), 0.241 in the test with ISC-enriched organoids [2] (setting [5]), −0.024 with ISC-enriched organoids [2] (setting [6]) and −0.147 in the test on ISC-enriched organoids [2] (setting [7]).

Take `CC(C)(C#N)c1cc(Cn2cncn2)cc(C(C)(C)C#N)c1` [Anastrozole]: in the test on ISC-enriched organoids [3] (setting [12]), the SSMD.LYZ.S is 0.304. In addition, the Z.CTG is −0.279 in the test on ISC-enriched organoids [2] (setting [4]), 0.057 in the test with ISC-enriched organoids [2] (setting [5]), −0.139 with ISC-enriched organoids [2] (setting [6]) and −1.191 in the test with ISC-enriched organoids [2] (setting [7]).

As for `CC(C)C[C@H](NC(=O)[C@H](Cc1ccccc1)NC(=O)c1cnccn1)B(O)O` [Bortezomib (PS-341)], the Dose.FC.LYZ.S in the test on ISC-enriched organoids [3] (dose 0.08 uM) is −0.239 log 2 fold change; in the test on ISC-enriched organoids [3] (dose 0.40 uM), −0.173 log 2 fold change; with ISC-enriched organoids [3] (dose 2.00 uM), −0.249 log 2 fold change; with ISC-enriched organoids [3] (dose 10.00 uM), −0.238 log 2 fold change. In addition, the Dose.FC.CTG with ISC-enriched organoids [2] (setting [8]) is −1.904 log 2 fold change; in the test on ISC-enriched organoids [2] (setting [9]), −2.146 log 2 fold change; in the test on ISC-enriched organoids [2] (setting [10]), −0.915 log 2 fold change; in the test with ISC-enriched organoids [2] (setting [11]) it was −1.359 log 2 fold change. Further, the Z.CTG with ISC-enriched organoids [2] (setting [4]) is −4.547; in the test on ISC-enriched organoids [2] (setting [5]) it was −5.127; in the test with ISC-enriched organoids [2] (setting [6]), −2.185; with ISC-enriched organoids [2] (setting [7]) it was −3.246.

Regarding `CCOc1nc2cccc(C(=O)O)c2n1Cc1ccc(-c2ccccc2-c2nnn[nH]2)cc1` [Candesartan], in the test with ISC-enriched organoids [1] (setting [12]), the SSMD.LYZ.NS is reported as −0.474. Moreover, the Z.CTG is reported as −0.299 in the test on ISC-enriched organoids [2] (Dose 0.40 uM, standard z score of FC); −0.473 with ISC-enriched organoids [2] (Dose 2.00 uM, standard z score of FC); −0.604 in the test on ISC-enriched organoids [2] (Dose 10.00 uM, standard z score of FC).

For `C=CC(=O)N1CCC[C@@H](n2nc(-c3ccc(Oc4ccccc4)cc3)c3c(N)ncnc32)C1` [Ibrutinib (PCI-32765)], the Dose.FC.LYZ.NS is reported as −0.071 log 2 fold change in the test on ISC-enriched organoids [1] (Dose 0.08 uM), −0.141 log 2 fold change with ISC-enriched organoids [1] (Dose 0.40 uM), −0.202 log 2 fold change in the test on ISC-enriched organoids [1] (Dose 2.00 uM) and −0.199 log 2 fold change with ISC-enriched organoids [1] (Dose 10.00 uM). For the same compound, the Z.LYZ.NS is −0.619 in the test with ISC-enriched organoids [1] (Dose 0.08 uM, standard z score); −1.225 in the test with ISC-enriched organoids [1] (Dose 0.40 uM, standard z score); −1.763 with ISC-enriched organoids [1] (Dose 2.00 uM, standard z score); −1.737 in the test on ISC-enriched organoids [1] (setting [13]). Also, the SSMD.LYZ.NS in the test with ISC-enriched organoids [1] (setting [14]) was −0.704; with ISC-enriched organoids [1] (setting [15]), −1.031; in the test on ISC-enriched organoids [1] (setting [16]), −1.175; with ISC-enriched organoids [1] (setting [17]), −1.325. The Dose.FC.CTG in the test with ISC-enriched organoids [2] (Dose 0.08 uM, primary screen) is −0.027 log 2 fold change; with ISC-enriched organoids [2] (Dose 0.40 uM, primary screen), −0.466 log 2 fold change; with ISC-enriched organoids [2] (Dose 2.00 uM, primary screen), −0.521 log 2 fold change; in the test with ISC-enriched organoids [2] (Dose 10.00 uM, primary screen) it was −0.931 log 2 fold change. Further, the Z.CTG with ISC-enriched organoids [2] (setting [18]) is −0.065; in the test on ISC-enriched organoids [2] (setting [19]), −1.112; in the test on ISC-enriched organoids [2] (setting [20]) it was −1.244; in the test on ISC-enriched organoids [2] (setting [21]), −2.224. Also, the SSMD.CTG with ISC-enriched organoids [2] (setting [22]) is −0.062; in the test with ISC-enriched organoids [2] (setting [23]) it was −0.574; in the test on ISC-enriched organoids [2] (setting [24]), −1.005; in the test on ISC-enriched organoids [2] (setting [25]), −0.875.

Take `Cc1ccc(NC(=O)c2ccc(CN3CCN(C)CC3)cc2)cc1Nc1nccc(-c2cccnc2)n1` [Imatinib (STI571)]: the Dose.FC.LYZ.NS is recorded as 0.033 log 2 fold change with ISC-enriched organoids [1] (Dose 0.08 uM), 0.012 log 2 fold change in the test on ISC-enriched organoids [1] (Dose 0.40 uM), 0.025 log 2 fold change with ISC-enriched organoids [1] (Dose 2.00 uM) and −0.038 log 2 fold change with ISC-enriched organoids [1] (Dose 10.00 uM). For the same compound, the Z.LYZ.NS with ISC-enriched organoids [1] (Dose 0.08 uM, standard z score) was 0.284; with ISC-enriched organoids [1] (Dose 0.40 uM, standard z score), 0.104; with ISC-enriched organoids [1] (Dose 2.00 uM, standard z score) it was 0.217; with ISC-enriched organoids [1] (setting [13]), −0.333. Moreover, the SSMD.LYZ.NS is listed as 0.326 in the test with ISC-enriched organoids [1] (setting [14]), 0.108 in the test on ISC-enriched organoids [1] (setting [15]), 0.152 in the test on ISC-enriched organoids [1] (setting [16]) and −0.330 with ISC-enriched organoids [1] (setting [17]). Further, the Dose.FC.CTG is given as −0.150 log 2 fold change in the test on ISC-enriched organoids [2] (Dose 0.08 uM, primary screen); 0.079 log 2 fold change in the test with ISC-enriched organoids [2] (Dose 0.40 uM, primary screen); 0.056 log 2 fold change with ISC-enriched organoids [2] (Dose 2.00 uM, primary screen); −0.034 log 2 fold change in the test on ISC-enriched organoids [2] (Dose 10.00 uM, primary screen). Further, the Z.CTG in the test on ISC-enriched organoids [2] (setting [18]) is on record as −0.357; in the test with ISC-enriched organoids [2] (setting [19]), 0.188; in the test with ISC-enriched organoids [2] (setting [20]), 0.135; in the test with ISC-enriched organoids [2] (setting [21]) it was −0.082. The SSMD.CTG was −0.258 with ISC-enriched organoids [2] (setting [22]), 0.254 in the test on ISC-enriched organoids [2] (setting [23]), 0.194 in the test on ISC-enriched organoids [2] (setting [24]) and −0.097 in the test on ISC-enriched organoids [2] (setting [25]).
